From patent US10955415B2, “CD247 as a biomarker for assessing the effect of chemotherapeutic and biological drugs” (YISSUM RESEARCH DEVELOPMENT COMPANY OF THE HEBREW …, priority 2011, dated 2021) come the findings set out here.

For assay [1], the system named is CD247 (ζ chain). Details: species or system mice. Conditions: mouse, in vivo; for increase in the expression value of CD247 upon treatment: ip.
Assay [2] has as its system CD4+Foxp3+ Treg cells. Details: species or system mice. Conditions: mouse, in vivo.
In assay [3] the test system is CD3ε chain. Details: species or system mice. Conditions: mouse, in vivo.
In assay [4] the test system is MDSCs (Gr1+CD11b+). Details: species or system mice. Conditions: mouse, in vivo.
In assay [5] the test system is MDSCs. It counts as in vivo, mice. Conditions: spleen of BCG-inflamed mice, monotherapy, MFI.
Assay [6] concerns CD247. The experiment in a line: Adoptive transfer of CFSE-labeled normal splenocytes, CD247 in host and donor cells. It counts as in vivo, mice. Conditions: BCG-inflamed hosts, 24 h after transfer, spleen. The protocol:
CFSE-labeled splenocytes from normal mice (donor cells) were adoptively transferred into mice untreated, inflamed, and inflamed treated i.p. with irinotecan (hosts). After 24 h, splenocytes from each group were harvested and stained for CD247 expression (MFI) in CD3+ T cells within the CFSE+ (donor-cell) or CFSE− (host-cell) population. Data from three independent experiments (n=4) is presented. Statistical analyses using t test indicated significant differences at 95% Cl. Means and SEM are shown. * P<0.05. Abbreviations: Ho. (host), Do. (donor), cont. (control).
CFSE-labeled splenocytes from normal mice (donor cells) were adoptively transferred into non-inflamed, inflamed, and inflamed mice treated i.p. with 5-FU (hosts). After 24 h, splenocytes from each group were harvested and stained for CD247 expression (MFI) in CD3+ T cells within the CFSE+ (donor-cell) or CFSE− (host-cell) population. Data from three independent experiments (n=4) is presented. Statistical analyses using t test indicated significant differences at 95% Cl. Means and SEM are shown. *, P<0.05. Abbreviations: Ho. (host), Do. (donor), cont. (control).
Next, the effect of etanercept treatment on the host's immune status as well as on adoptively transferred T- and NK-cells was examined. It should be noted that adoptively transferred T- and NK-cells being a treatment that is frequently used today in different immunotherapeutic regiments for various pathologies. To this end, CFSE-labeled normal splenocytes were administered, i.v., 1 day before cell harvest, at the peak of the inflammatory response (mimicking cell mediated therapies).

Assay [7] deals with CD11b+CD11c+ and CD11b+F4/80+ cells. The experiment in a line: Myeloid differentiation state in spleen (DCs, macrophages, APC maturation). Conditions: BCG-inflamed mice. It counts as in vivo. From the text: FIG. 18A-18E. Splenocytes and PBLs from mice untreated (naïve), inflamed, or inflamed and treated with 5-FU or CPT-11 were fixed, permeabilized, and double stained for the expression of CD247 (ζ-chain) (FIGS. 18A, 18B) and CD3ε-chain (FIGS. 18D, 18E), as shown by mean fluorescence intensity (MFI), measured in gated CD3^+ cells. FIG. 18C: Splenocytes from mice, naïve, inflamed and inflamed treated with 5-FU or CPT-11, were labeled with CFSE and activated with anti-CD3 and anti-CD28 antibodies or left non-activated. The proliferative response was assessed by monitoring cell divisions of gated CFSE-labeled Thy1.2+ (CD90+) T-cells. The percent of proliferating cells was calculated and compared to steady state levels of non-activated cells per each group. Data from three independent experiments is presented (n=3). Statistical analyses using t test indicated significant differences at 95%. Means and SEM are shown. *, P<0.05; **, P<0.01. FIG. 18F-18I. For the detection of myeloid differentiation state, splenocytes from each group were stained for (18F) DC11b^+CD11c^+ cells (representing DCs), (18G) DC11b^+F4/80^+ cells (representing monocytes), (18H) CD11c^+MHCII^+CD80^+ cells (representing fully differentiated […] as antigen presenting cells) and (18I) F4/80^+MHCII^+CD80^+ cells (representing fully differentiated […] as antigen presenting cells). Data from three independent experiments (n=4) is presented. Statistical analyses using t test indicated significant differences at 95%. Means and SEM are shown. *, P<0.05; **, P<0.01; ***, P<0.001. Abbreviations: Nor. (normal), Rel. (relative), Inf. (inflamed), ce. Pro. (cell proliferation)
Isolated splenocytes and peripheral blood leukocytes (PBLs) were treated with erythrocyte lysis buffer and washed in PBS. Cells were pre-coated with anti-CD16/CD32 (Biolegend) for FcR blockage. For surface staining, cells were incubated for 30 min at 4° C. with FITC-labeled anti-Gr1, anti-CD11c, and anti-CD4; PE-labeled anti F4/80, anti-CD3ε, anti-CD45R/B220, and anti-mNKp46; and biotinylated anti-CD11b and anti-CD8 that were detected with streptavidin-Cy5 (Biolegend and eBioscience). Intracellular staining of CD247 cells was performed by subjecting the cells to fixation with paraformaldehyde (1%) for 20 min at 4° C., followed by washing and permeabilization for 10 min with saponin detergent (0.1%) at room temperature (RT). Cells were then washed and incubated with FITC-labeled monoclonal anti-CD247 (H146) (Abcam), or biotinylated monoclonal anti-CD247 (H146), which were subsequently detected with streptavidin-Cy5. FoxP3 staining was performed according to the manufacturer's instructions. Samples were analyzed using FACSCalibur with Cell Quest software (BD).

Assay [8] in a line: Spleen weight and size, BCG chronic inflammation mouse model. Conditions: BCG-inflamed WT-mice, 2 days after third BCG injection. It counts as in vivo. Here is the method: FIG. 15B. Spleen weight (left) and size (right) in etanercept-treated and untreated mice (n=7) was evaluated 2 days following the third BCG injection. *P<0.003, **P<0.002 (t-test). Data are from two independent experiments (mean and s.d.).
Induced chronic inflammation in mice was established by sustained subcutaneous injections of the heat-killed Bacille Calmette Guerin strain of Mycobacterium tuberculosis, (231141; Difco Laboratories) (BCG, 50 μg per animal/dose) once a week, for three weeks. The first two BCG administrations were mixed 1:1 with Incomplete Freund's adjuvant (IFA) (Sigma), and the second boost delivery was given with PBS. Mice sacrifice and cell isolations were performed two days after the third injection. Spleen weight was measured and cells from the spleen and peripheral blood (PBLs) were analyzed. The results represent three independent experiments.

“Also recorded” adds a separate entry of the source.

As to `CS(=O)(=O)OCCCCOS(C)(=O)=O` [Busulfan, 1,4-butanediol dimethanesulfonate], in assay [1], the “CD247 expression in T cells, spleen” value is “initial recovery” and the “increase in the expression value of CD247 upon treatment” value was “about 23%”. Besides, the “levels of Treg cells (CD4+Foxp3+) in spleen” value (“levels of Treg cells” for short) in assay [2] is “remained unchanged”. Also, the CD3ε expression levels entry in assay [3] is “remained uniform among the different groups”. Moreover, in assay [4], the “MDSC levels in peripheral blood (PBLs)” value is “significant decline; also recorded: decrease; also recorded: reduced” and the “MDSC levels in the spleen” value was “significant decline; also recorded: decrease; also recorded: reduced”.

Take `O=P1(N(CCCl)CCCl)NCCCO1` (stereo not shown) [Cyclophosphamide]: the “CD247 expression in T cells, spleen” value in assay [1] is “down-regulation of CD247 that was observed in the course of chronic inflammation was maintained”. In addition, in assay [2], the “levels of Treg cells” value was “decrease”. Besides, the CD3ε expression levels entry in assay [3] is listed as “remained normal”. Further, in assay [5], the “NO production by MDSCs” value is recorded as “maintained high” and the “ROS production by MDSCs” value was “maintained high”. Moreover, in assay [4], the “MDSC levels in peripheral blood (PBLs)” value is “significantly increased; also recorded: significant accumulation” and the “MDSC levels in the spleen” value is on record as “remained high; also recorded: significantly increased”.

Consider `COc1cccc2c1C(=O)c1c(O)c3c(c(O)c1C2=O)C[C@@](O)(C(=O)CO)C[C@@H]3O[C@H]1C[C@H](N)[C@H](O)[C@H](C)O1` [Doxorubicin], for which, in assay [1], the “CD247 expression in T cells, PBLs” value is “clear increase”; the “CD247 expression in T cells, spleen” value is listed as “clear increase”; the “increase in the expression value of CD247 upon treatment” value is “about 24%”. Also, in assay [2], the “levels of Treg cells” value is “not affected; also recorded: no change”. Moreover, the CD3ε expression levels result in assay [3] is given as “uniform among the different groups”. Also, in assay [4], the “MDSC levels in peripheral blood (PBLs)” value is listed as “significant decline; also recorded: decrease; also recorded: reduced” and the “MDSC levels in the spleen” value is reported as “significant decline; also recorded: decrease; also recorded: reduced”.

For etanercept, in assay [6], the “CD247 expression in host and adoptively transferred donor NK cells” value is recorded as “significantly increased”; the “CD247 expression in host and adoptively transferred donor T cells” value is reported as “significantly increased”. Besides, in assay [7], the “differentiated myeloid cells in spleen (CD11b+CD11c+ DCs, CD11b+F4/80+ macrophages)” value is “significant increase”. For the same compound, the “spleen size and weight” value in assay [8] was “reduced spleen size and weight”. Further, the “MDSC levels in the spleen” value in assay [4] is listed as “decreased percentage of MDSCs”.
